Several values for one entry are separate records, joined by “and”; a condition that tells them apart may be missing. Identical values can stand only once.
Experiments:
[1] = target: Banner PD-seeded α-synuclein fibrils (Homo sapiens (Human), UniProt P37840); assay: Homologous competition radioligand binding assay, PD-seeded fibrils; details: 150 nM Banner PD seeded fibrils
Protocol: The equilibrium dissociation constant (Kd) for a series of compounds was determined using direct radioactive competitive binding assays (homologous or heterologous) with either recombinant α-synuclein fibrils or brain tissue homogenates from AD cases.
Recombinant protein was produced in E. coli using protocols based on previously described methods for α-synuclein [Giasson, B. I., et al., “Mutant and wild type human alpha-synucleins assemble into elongated filaments with distinct morphologies in vitro,” 1999, J Biol. Chem., 274:7619-7622; Huang, C., et al., “A new method for purification of recombinant human alpha-synuclein in Escherichia coli,” 2005, Protein Expr Purif, 42:173-177; Yu, L., et al, “Synthesis and in vitro evaluation of á-synuclein ligands,” 2012, Bioorg. Med. Chem., 20:4625-4634] and tau [Li, W., et al., “Characterization of two VQIXXK motifs for tau fibrillization in vitro,” 2006, Biochemistry, 45:15692-15701]. BL21(DE3)RIL E. coli were transformed with a pRK172 bacterial expression plasmid containing the human α-synuclein coding sequence. […]. Overnight cultures were centrifuged at 3,900×g for 10 min at 25° C. and the bacterial pellets were resuspended by gentle vortexing in 20 ml osmotic shock buffer (30 mM Tris-HCl, 2 mM EDTA, 40% Sucrose, pH 7.2) and then incubated at room temperature for 10 min. The cell suspension was then centrifuged at 8,000×g for 10 min at 25° C. and the pellet was resuspended in 22.5 ml cold H2O before adding 9.4 μl 2 M MgCl2 to each tube. The suspension was incubated on ice for 3 min prior to centrifugation at 20,000×g for 15 min at 4° C. After the supernatant was transferred to a fresh tube, streptomycin was added to a final concentration of 10 mg/ml and centrifuged at 20,000×g for 15 min at 4° C. The supernatant from this step was collected and dithiothreitol (DTT) and Tris-HCl pH 8.0 were added to final concentrations of 1 mM and 20 mM respectively, before boiling for 10 min to precipitate heat-sensitive proteins, which were pelleted at 20,000×g for 15 min at 4° C. The supernatant was collected and filtered through a 0.45 μm surfactant-free cellulose acetate filter (Corning) before loading onto a 1 ml DEAE Sepharose column equilibrated in 20 mM Tris-HCl pH 8.0, 1 mM EDTA, and 1 mM DTT. The DEAE column was washed with 20 mM Tris-HCl pH 8.0, 1 mM EDTA, 1 mM DTT before eluting α-synuclein protein in 20 mM Tris-HCl pH 8.0 buffer with 1 mM EDTA, 1 mM DTT and 0.3 M NaCl. Purified α-synuclein protein was dialyzed overnight in 10 mM Tris-HCl pH 7.6, 50 mM NaCl, 1 mM DTT.
Purified recombinant α-synuclein monomer (2 mg/ml) was incubated in 20 mM Tris-HCl, pH 8.0, 100 mM NaCl for 72 h at 37 C with shaking at 1000 rpm in an Eppendorf Thermomixer. […] The concentration of α-synuclein monomer in the supernatant was determined in a BCA protein assay according to the manufacturer's instructions, using a bovine serum albumin (BSA) standard curve. The measured decrease in α-synuclein monomer concentration was used to determine the concentration of fibrils in the 72 h fibril reaction mixture. […]
These direct binding assays used a fixed concentration of either fibrils or PD/AD tissue and the radioligand (e.g., [^18F]28) and varying concentration ranges of corresponding homologous non-radiolabeled standard reference compound. […] Reactions were incubated at 37° C. for 1 h before quantifying bound radioligand. […]

Banner seeded fibrils = Banner seeded fibrils (Homo sapiens (Human), UniProt P37840); assay: Saturation binding of [125I]TZ61-84 to Banner seeded fibrils; details: 100 nM Banner seeded fibrils, saturation binding
Protocol: The binding efficacy (Kd) of TZ-61-84 was determined using a modified protocol. Specifically, saturation plots of radiolabeled [^125I]TZ61-84 were obtained measuring total and nonspecific binding of TZ61-84 to 100 nM Banner seeded fibrils. The results are depicted in FIG. 15B-15D and that TZ61-84 has a high binding affinity to α-synuclein (Kd<1 nM).

- Kd [1]: 29 nM
- Kd (Banner seeded fibrils): 0.34 nM and 0.5 nM
SMILES: COc1ccc2nc(-c3csc(C=O)c3)ccc2c1 [TZ55-81]
